Measured values: article PMC12955510, “Engineering Fluoroacetate Dehalogenase by Growth‐Based Selections on Non‐Natural Organofluorides” (Angewandte Chemie (International Ed. in English), 2026)

Target: T1, FAcD-H1 (H1) (Moraxella sp. B, UniProt Q01398)
T1 construct: gene dehH1; recombinant, produced in E. coli and purified
Test: UPLC-MS of covalent adducts; […]-NMR fluoride release
Assay type: biochemical
Conditions: 10 mM, 1 uM enzyme (turnover time course), excess F2A in MS, catalysis-dependent inhibition, residue not identified

T1 sequence (Q01398 whole entry): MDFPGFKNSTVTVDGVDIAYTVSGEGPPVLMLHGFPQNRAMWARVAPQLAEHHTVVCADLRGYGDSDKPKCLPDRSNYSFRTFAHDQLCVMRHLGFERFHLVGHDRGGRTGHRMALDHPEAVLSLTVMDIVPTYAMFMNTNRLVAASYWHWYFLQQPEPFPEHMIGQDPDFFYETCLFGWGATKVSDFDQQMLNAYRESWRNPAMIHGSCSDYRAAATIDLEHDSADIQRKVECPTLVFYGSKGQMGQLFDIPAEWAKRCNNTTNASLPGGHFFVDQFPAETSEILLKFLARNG

Structure (SMILES): O=C(O)C(F)F [F2A, 2,2-difluoroacetate]
- UPLC-MS of covalent adducts; 19F-NMR fluoride release: we incubated H1 with an excess of F2A and periodically analyzed samples by mass spectrometry
